# Laboratory results: patent publication US20090029968A1, “QUINAZOLINE DERIVATIVES USED AS INHIBITORS OF ERBB TYROSINE KINASE” (priority 2005, published 2009)
# Legend:
# [1] = target: T1, EGFR tyrosine kinase (Homo sapiens, UniProt P00533); assay: Test (a) protein tyrosine kinase phosphorylation assay, EGFR; assay type: biochemical; conditions: recombinant intracellular fragment, ATP at Km; read-out: IC50 Test (a): Inhibition of EGFR tyrosine kinase protein phosphorylation
# T1 construct: Recombinant intracellular fragments of EGFR, erbB2 and erbB4; made in house; host or cells: baculovirus/Sf21 insect cells (cleared lysate used)
# T1 sequence (P00533 669-1210 limits assumed): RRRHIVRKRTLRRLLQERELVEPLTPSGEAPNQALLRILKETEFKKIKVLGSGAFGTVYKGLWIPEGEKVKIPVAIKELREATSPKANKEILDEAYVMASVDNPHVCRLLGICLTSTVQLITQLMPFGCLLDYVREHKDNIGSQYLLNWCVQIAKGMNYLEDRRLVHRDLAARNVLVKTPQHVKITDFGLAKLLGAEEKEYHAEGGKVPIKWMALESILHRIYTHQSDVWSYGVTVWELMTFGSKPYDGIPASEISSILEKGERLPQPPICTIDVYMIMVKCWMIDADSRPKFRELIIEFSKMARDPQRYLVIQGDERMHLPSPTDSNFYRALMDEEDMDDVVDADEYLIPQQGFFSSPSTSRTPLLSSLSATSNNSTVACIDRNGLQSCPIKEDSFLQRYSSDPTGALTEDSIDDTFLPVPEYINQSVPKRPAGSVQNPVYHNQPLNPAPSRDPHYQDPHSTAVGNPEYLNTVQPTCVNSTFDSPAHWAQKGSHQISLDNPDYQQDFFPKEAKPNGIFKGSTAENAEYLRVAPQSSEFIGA
# Protocol: (§1) a) Protein Tyrosine Kinase phosphorylation Assays
# (§2) This test measures the ability of a test compound to inhibit the phosphorylation of a tyrosine containing polypeptide substrate by EGFR, erbB2 and erbB4 tyrosine kinase enzyme.
# (§3) Recombinant intracellular fragments of EGFR, erbB2 and erbB4 (accession numbers X00588, X03363 and L07868 respectively) were cloned and expressed in the baculovirus/Sf21 system. […]
# (§4) Constitutive kinase activity of these recombinant proteins was determined by their ability to phosphorylate a synthetic peptide (made up of a random co-polymer of Glutamic Acid, Alanine and Tyrosine in the ratio of 6:3:1). […]
# (§5) The immobilised phospho-peptide product of the reaction was detected by immunological methods. […] After further washing, HRP activity in each well of the plate was measured […] using 22′-Azino-di-[3-ethylbenzthiazoline sulfonate (6)] diammonium salt crystals (ABTS™ from Roche) as a substrate.
# (§6) Quantification of colour development and thus enzyme activity was achieved by the measurement of absorbance at 405 nm on a Molecular Devices ThermoMax microplate reader. Kinase inhibition for a given compound was expressed as an IC50 value. […] The range of phosphorylation was calculated from the positive (vehicle plus ATP) and negative (vehicle minus ATP) control values.
# [2] = target: T2, erbB2 tyrosine kinase (Homo sapiens, UniProt P04626); assay: Test (a) protein tyrosine kinase phosphorylation assay, erbB2; assay type: biochemical; conditions: recombinant intracellular fragment, ATP at Km; read-out: IC50 Test (a): Inhibition of erbB2 tyrosine kinase protein phosphorylation
# T2 construct: Recombinant intracellular fragments of EGFR, erbB2 and erbB4; made in house; host or cells: baculovirus/Sf21 insect cells (cleared lysate used)
# T2 sequence (P04626 676-1255 limits assumed): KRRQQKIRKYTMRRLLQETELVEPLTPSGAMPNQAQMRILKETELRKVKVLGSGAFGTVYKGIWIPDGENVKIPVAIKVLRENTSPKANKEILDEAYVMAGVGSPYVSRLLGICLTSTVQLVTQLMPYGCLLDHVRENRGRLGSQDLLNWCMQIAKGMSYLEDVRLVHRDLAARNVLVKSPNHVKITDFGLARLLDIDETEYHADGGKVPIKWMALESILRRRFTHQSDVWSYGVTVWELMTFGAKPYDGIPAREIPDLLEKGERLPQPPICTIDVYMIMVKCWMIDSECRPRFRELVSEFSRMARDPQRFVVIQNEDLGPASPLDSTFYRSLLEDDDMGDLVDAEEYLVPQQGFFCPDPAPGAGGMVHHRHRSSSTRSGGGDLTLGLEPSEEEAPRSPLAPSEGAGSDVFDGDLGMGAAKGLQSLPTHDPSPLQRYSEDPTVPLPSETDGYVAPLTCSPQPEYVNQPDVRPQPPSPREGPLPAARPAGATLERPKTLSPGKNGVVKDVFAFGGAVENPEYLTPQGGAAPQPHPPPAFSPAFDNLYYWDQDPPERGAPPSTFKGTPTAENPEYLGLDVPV
# Protocol: as §1, §2, §3, §4, §5, §6
# [3] = tested on: BT474C cells; assay: Test (e) BT474C cell proliferation assay; assay type: cell-based; conditions: Homo sapiens, 96 h, four-day MTS endpoint, read-out: IC50 Test (e): Inhibition of proliferation of BT474C cells
# From the text: The BT-474 tumour cell line (human mammary carcinoma) was obtained from Dr Baselga (at Laboratorio Recerca Oncologica, Paseo Vall D'Hebron 119-129, Barcelona 08035, Spain). This cell line was subcloned and a certain population (hereinafter referred to as “BT474C”) was obtained.
# e) BT474C Cell Proliferation Assay
# BT474C cells are a sub-cloned population of in vivo competent cells, as discussed above.
# The BT474C assay is a MTS (3-(4,5-dimethylthiazol-2-yl)-5-(3-carboxymethoxyphenyl)-2-(4-sulfophenyl)-2H-tetrazolium, inner salt—Promega G1111) endpoint-based cell proliferation assay, which measures the ability of a test compound to inhibit the proliferation of cells over a four-day period. […] Cell density is measured using a haemocytometer and viability is calculated using Trypan Blue solution before being further diluted in Assay Medium and seeded at a density of 1×10^4 cells per well (in 100 ul) into clear bottomed 96 well plates (Costar 3598). […] The plate is read at 490 nm on a spectrophotometer.
# Assay plates are left at 37° C. for 4 days and then treated with MTS solution (as above), which is converted to a soluble formazan product by active cells. After incubating the plates for 2 hours the reaction is stopped by the addition of 10% SDS (Sodium dodecyl sulphate) and the plates are read at 490 nm on a spectrophotometer giving absorbance values relative to the concentration of converted dye. […]
IC50 [1],IC50 [2],IC50 [3],SMILES
333 nM,15 nM,179 nM,"C[C@@H](Oc1cccc2ncnc(Nc3ccc(C(=O)N4CCCCCC4)c(Cl)c3)c12)C(=O)N(C)CCO [Example 1, (2R)-2-[(4-{[4-(azepan-1-ylcarbonyl)-3-chlorophenyl]amino}quinazolin-5-yl)oxy]-N-(2-hydroxyethyl)-N-methylpropanamide]"
869 nM,22 nM,857 nM,"C[C@@H](Oc1cccc2ncnc(Nc3ccc(C(=O)N4CCCCC4)c(Cl)c3)c12)C(=O)N(C)CCO [Example 2, (2R)-2-[(4-{[3-chloro-4-(piperidin-1-ylcarbonyl)phenyl]amino}quinazolin-5-yl)oxy]-N-(2-hydroxyethyl)-N-methylpropanamide]"
